What was measured:
Type in all cases: in vivo
Meloidogyne incognita = experiment: Root infestation on agar plate: root knot count on potato microplant roots; conditions: 60 μM in agar, galls counted 5 weeks after inoculation, four replicates
Method: 9 cm petri dishes were filled with a 15 ml agar. One stem cutting of a potato microplant (Solanum tuberosum cv. Desirée) was placed on top of the agar layer. After 2 to 3 weeks of incubation at 20° C., the root system was sufficiently developed to be inoculated.
The test compounds (see Table 1) were added 2 days before inoculation by way of spreading a 2 ml DMSO-solution with the compound over the agar and allowing the compound to diffuse in the agar during two days at constant temperature of 20° C. During incubation, the plates are protected from light in a dark incubator. The resulting concentration of each compound in each agar plate was 60 μM.
After incubation, approximately 400 axenic juveniles of Meloidogyne incognita species were added to the plate.
The plates were incubated in the dark at a constant temperature of 20° C. and 5 weeks after inoculation the number of galls formed on the roots were determined by counting. Also any toxic effect of the test compounds on the roots was recorded. 8 weeks after inoculation the plates were stored at low temperature.
Each compound was tested in four replicates. Positive controls were treated with different concentrations of Aldicarb, a known nematicide. Negative controls included 5 replicates of double negative controls (no compound, no nematode), 5 replicates of single negative controls (no compound, with nematode) and 5 replicates of DMSO controls (DMSO solution, with nematode).

[1] = test system: Meloidogyne incognita nematodes; experiment: Pot Assay 1: Meloidogyne infection of potato, egg masses/galls on roots; conditions: for number of egg masses (galls) on roots, Replicate 1 / number of egg masses (galls) on roots, Replicate 2 / number of egg masses (galls) on roots, Replicate 3: potato in pot, week 8 after inoculation
Method: 500 ml clay pots were filled with 400 ml of silver sand. One tuber of potato ( Solanum tuberosum cv. Bintje) was planted in the sand. After 2 to 3 weeks incubation, the potato plant was sufficiently developed to be inoculated.
Plants were grown under the usual standard greenhouse conditions at 14° C.-18° C., with 16 hours light and 8 hours dark and 80-90% relative humidity. The pots were watered using individual drippers and fertilizers were added under the form of macro- and micro nutrients according to plant growth requirements. When needed, the plants were sprayed with fungicides and insecticides.
The compounds as described herein were added one day before inoculation. The compounds were dissolved in a 20 ml DMSO-solution and spread over the sand surface. The final concentration is calculated under the assumption that the compound is diffused entirely in the pot. This process occurred during two days at the normal greenhouse conditions described above.
After compound incubation, approximately 1500 juveniles of Meloidogyne incognita nematodes were added to the pots.
The pots were incubated at the described greenhouse conditions until nematode development was completed. At week 8 after inoculation the number of galls formed on the roots was counted after washing off the sandy substrate. Also the effect of the compound on the plant development was recorded.
Every compound was tested in three replicates. Positive control plants were treated with different concentrations of aldicarb, a known nematicide. Negative controls involved 12 replicates of double negative controls (no compound, no nematode), 12 replicates of single negative controls (no compound, no DMSO, with nematode), 24 replicates of DMSO controls (DMSO solution, with nematode).
As assessment of the root development was taken into account.

tomato (cv. Rio Grande) = experiment: Pot Assay 2: root development (vigor of roots) of tomato; conditions: for ROOT DEV.: visual value 0 to 10 (10 equal to control)
Method: Phytotoxicity of compounds as described herein when used as a nematicide, was measured as follows. […] At that moment, plant emergence was assessed for the plants treated with any of the compounds as described herein, by counting the number of plants per compound-concentration.
Vigor of roots was also assessed once the plants are well established so as not to loose plants. To assess vigor of the plants or roots, a visual value ranging from 0 to 10 (0 no vigor, 10 equal to control) was scored per compound-concentration.

Meloidogyne nematodes = experiment: Pot Assay 2: Meloidogyne infection of tomato, % infestation of roots; conditions: for % INF. (% Infestation): tomato in infested soil
Method: The soil used in this assay originated from a plot, heavily infested with Meloidogyne nematodes. Part of this soil was sterilized by autoclaving and was used as negative control. Sandy soil, which was not infested with nematodes, was pursued from a commercial source.
Plastic seedling trays with wells of 60 ml capacity were filled with about 40 ml of soil per well. 5 ml of water per well was used for irrigation.
Compounds as described herein were tested in 4 different rates and with 12 replicates for each concentration. The compounds as described herein were stored as dry films of 4 different concentrations. The day of the application of the compounds, all the dry films were dissolved in 60 ml water and poured into the 12 replicate wells: 5 ml per well. Every tray of 12 wells was identified with a label, indicating compound and concentration used. The 4 final rates in the soil of the tested compound were approximately 0.05 mg, 0.20 mg, 1 mg and 5 mg. These amounts translate to field application rates respectively as 30, 120, 600 and 3000 g per hectare.
3-5 days after application of the tested compound, tomato seeds (cv. Rio Grande) were sown in the wells by hand, at about 2 cm deep. A light cover of vermiculite on the surface was used to avoid dehydration. Plants were irrigated by micro-nebulization 3-4 times per week at a rate of 3 L/m^2, weeded by hand and treated with fertilizers, fungicide and insecticides when needed.
Their resistance against nematode infection was monitored and the efficacy of compounds described herein as a nematicide was measured. Furthermore the phytotoxicity of the test compounds was evaluated.
Efficacy of the compounds described herein as nematicide was measured by giving the roots a percentage of infestation measured as follows. Plants were grown to reach good development of the roots, which corresponds to plants grown to about 10 cm high at about one month after emergence. After removal of the soil from the roots by rinsing with water, the roots were visually inspected and root galls were counted on 4 plants of the set of 12 replicate plants.
Positive control plants were treated with a 10 micromolar concentration of oxamyl (Vydate, 10% SL; the rate of 10 micromolar corresponds to a commercial rate of 20 l/ha), a known nematicide. Negative controls involved double negative controls (no compound, sterile soil), and single negative controls (no compound, with nematode infested soil).

[2] = highest concentration of the reference compound
[3] = reference, 10 micromolar (Vydate, 10% SL)

## CC(C)=CC1C(C(=O)OCN2C(=O)C3=C(CCCC3)C2=O)C1(C)C (mixture of isomers) [LIX]
Meloidogyne incognita
  Root knot count, average of the replicate counts: 19

## CC(C)=CC1C(C(=O)OCc2coc(Cc3ccccc3)c2)C1(C)C (mixture of isomers) [LVII]
Meloidogyne incognita
  Root knot count, average of the replicate counts: 8.5

## Cc1c(F)c(F)c(COC(=O)C2C(C=C(Cl)C(F)(F)F)C2(C)C)c(F)c1F (racemic) [LVIII]
Meloidogyne incognita
  Root knot count, average of the replicate counts: 18.25
[1]; 50 μM
  number of egg masses (galls) on roots, Replicate 1: 60
  number of egg masses (galls) on roots, Replicate 2: 100
  number of egg masses (galls) on roots, Replicate 3: 30

## CNC1=C(c2cccc(C(F)(F)F)c2)C(=O)C(c2ccccc2)O1 (racemic) [XV]
Meloidogyne incognita
  Root knot count, average of the replicate counts: 18

## CNC(=O)O/N=C/C(C)(C)SC [Aldicarb, reference compound]
[1]; [2]
  egg mass development (number of egg masses): 41
  reduction of the egg mass development, fraction of control: about ⅓
[1]; three lowest concentrations of the reference compound
  effect on the nematode development: no effect

## CCC(N)P(=O)(O)O (centres unmarked) [II]
Tomato (cv. Rio Grande); RATE 0.05 mg
  ROOT DEV.: 6.7
Tomato (cv. Rio Grande); RATE 0.2 mg
  ROOT DEV.: 7.3
Tomato (cv. Rio Grande); RATE 1 mg
  ROOT DEV.: 7.3
Tomato (cv. Rio Grande); RATE 5 mg
  ROOT DEV.: 7.9
Meloidogyne incognita
  Root knot count, average of the replicate counts: 6.5
Meloidogyne nematodes; RATE 0.05 mg
  % INF. (% Infestation): 0.0%
Meloidogyne nematodes; RATE 0.2 mg
  % INF. (% Infestation): 0.0%
Meloidogyne nematodes; RATE 1 mg
  % INF. (% Infestation): 0.0%
Meloidogyne nematodes; RATE 5 mg
  % INF. (% Infestation): 0.0%

## N#Cc1c(Cl)c(Cl)c(Cl)c(C#N)c1Cl [IV]
Meloidogyne incognita
  Root knot count, average of the replicate counts: 11.5

## CCNC(=O)NC(=O)C(C#N)=NOC [LII]
Meloidogyne incognita
  Root knot count, average of the replicate counts: 15.5

## Cc1cccc(C)c1N(C(=O)CCl)C1CCOC1=O (centres unmarked) [LIV]
Tomato (cv. Rio Grande); RATE 0.05 mg
  ROOT DEV.: 7.5
Tomato (cv. Rio Grande); RATE 0.2 mg
  ROOT DEV.: 7.2
Tomato (cv. Rio Grande); RATE 1 mg
  ROOT DEV.: 7.6
Tomato (cv. Rio Grande); RATE 5 mg
  ROOT DEV.: 6.6
Meloidogyne incognita
  Root knot count, average of the replicate counts: 14.5
Meloidogyne nematodes; RATE 0.05 mg
  % INF. (% Infestation): 5.0%
Meloidogyne nematodes; RATE 0.2 mg
  % INF. (% Infestation): 5.0%
Meloidogyne nematodes; RATE 1 mg
  % INF. (% Infestation): 3.8%
Meloidogyne nematodes; RATE 5 mg
  % INF. (% Infestation): 2.5%

## O=C(NC(=O)c1c(F)cccc1F)Nc1cc(Cl)c(Oc2ncc(C(F)(F)F)cc2Cl)c(Cl)c1 [LI]
Meloidogyne incognita
  Root knot count, average of the replicate counts: 17.5

## COCC(=O)N(c1c(C)cccc1C)N1CCOC1=O [LV]
Meloidogyne incognita
  Root knot count, average of the replicate counts: 17.75

## CNC(=O)O/N=C(\SC)C(=O)N(C)C [Oxamyl, reference compound]
Tomato (cv. Rio Grande); RATE 1 mg
  ROOT DEV.: 7.5
Tomato (cv. Rio Grande); [3]
  root development: 7.5
Meloidogyne nematodes; RATE 1 mg
  % INF. (% Infestation): 13.8%
Meloidogyne nematodes; [3]
  percentage of infestation: 13.8%

## CC(C)N(C(=O)COc1nnc(C(F)(F)F)s1)c1ccc(F)cc1 [XIII]
Meloidogyne incognita
  Root knot count, average of the replicate counts: 9.5
[1]; 10 μM
  number of egg masses (galls) on roots, Replicate 3: 40
[1]; 50 μM
  number of egg masses (galls) on roots, Replicate 1: 60
  number of egg masses (galls) on roots, Replicate 3: 30

## CC(C)(C)N(NC(=O)c1ccc(Cl)cc1)C(=O)c1ccccc1 [XIX]
Meloidogyne incognita
  Root knot count, average of the replicate counts: 10.75
[1]; 10 μM
  number of egg masses (galls) on roots, Replicate 3: 80
[1]; 50 μM
  number of egg masses (galls) on roots, Replicate 1: 60
  number of egg masses (galls) on roots, Replicate 2: 45
  number of egg masses (galls) on roots, Replicate 3: 20

## Clc1nc(Cl)nc(Nc2ccccc2Cl)n1 [XLII]
Tomato (cv. Rio Grande); RATE 0.05 mg
  ROOT DEV.: 6.8
Tomato (cv. Rio Grande); RATE 0.2 mg
  ROOT DEV.: 6.9
Tomato (cv. Rio Grande); RATE 1 mg
  ROOT DEV.: 8.2
Tomato (cv. Rio Grande); RATE 5 mg
  ROOT DEV.: 8.1
Meloidogyne incognita
  Root knot count, average of the replicate counts: 17.25
Meloidogyne nematodes; RATE 0.05 mg
  % INF. (% Infestation): 3.8%
Meloidogyne nematodes; RATE 0.2 mg
  % INF. (% Infestation): 0.0%
Meloidogyne nematodes; RATE 1 mg
  % INF. (% Infestation): 0.0%
Meloidogyne nematodes; RATE 5 mg
  % INF. (% Infestation): 0.0%

## CC(C)(C)C(O)C(Oc1ccc(-c2ccccc2)cc1)n1cncn1 (centres unmarked) [XLVIII]
Tomato (cv. Rio Grande); RATE 0.05 mg
  ROOT DEV.: 7.5
Tomato (cv. Rio Grande); RATE 0.2 mg
  ROOT DEV.: 7.4
Tomato (cv. Rio Grande); RATE 1 mg
  ROOT DEV.: 7.2
Tomato (cv. Rio Grande); RATE 5 mg
  ROOT DEV.: 7.8
Meloidogyne incognita
  Root knot count, average of the replicate counts: 12.75
Meloidogyne nematodes; RATE 0.05 mg
  % INF. (% Infestation): 0.0%
Meloidogyne nematodes; RATE 0.2 mg
  % INF. (% Infestation): 1.3%
Meloidogyne nematodes; RATE 1 mg
  % INF. (% Infestation): 3.8%
Meloidogyne nematodes; RATE 5 mg
  % INF. (% Infestation): 1.3%

## Cc1cc(C)nc(Nc2ccccc2)n1 [XLVI]
Meloidogyne incognita
  Root knot count, average of the replicate counts: 18.25

## Nc1nc(N)nc(NC2CC2)n1 [XLV]
Meloidogyne incognita
  Root knot count, average of the replicate counts: 19.5

## O=[N+]([O-])N=C1NCCN1Cc1ccc(Cl)nc1 [XXII]
Meloidogyne incognita
  Root knot count, average of the replicate counts: 12

## C#CCOC(=O)/C=C(C)/C=C/CC(C)CCCC(C)C (centres unmarked) [XXVIII]
Tomato (cv. Rio Grande); RATE 0.05 mg
  ROOT DEV.: 7.4
Tomato (cv. Rio Grande); RATE 0.2 mg
  ROOT DEV.: 7.8
Meloidogyne incognita
  Root knot count, average of the replicate counts: 8.5
Meloidogyne nematodes; RATE 0.05 mg
  % INF. (% Infestation): 2.5%
Meloidogyne nematodes; RATE 0.2 mg
  % INF. (% Infestation): 1.3%

## CS(=O)(=O)c1cc(C(F)(F)F)ccc1C(=O)c1cnoc1C1CC1 [XXVI]
Tomato (cv. Rio Grande); RATE 0.05 mg
  ROOT DEV.: 7.4
Tomato (cv. Rio Grande); RATE 0.2 mg
  ROOT DEV.: 6.6
Tomato (cv. Rio Grande); RATE 1 mg
  ROOT DEV.: 7.8
Meloidogyne incognita
  Root knot count, average of the replicate counts: 8.75
Meloidogyne nematodes; RATE 0.05 mg
  % INF. (% Infestation): 1.3%
Meloidogyne nematodes; RATE 0.2 mg
  % INF. (% Infestation): 3.8%
Meloidogyne nematodes; RATE 1 mg
  % INF. (% Infestation): 0.0%

## CCOc1ccc([Si](C)(C)CCCc2ccc(F)c(Oc3ccccc3)c2)cc1 [XXXIII]
Meloidogyne incognita
  Root knot count, average of the replicate counts: 17.5

## CCc1nn(C)c(C(=O)NCc2ccc(C(C)(C)C)cc2)c1Cl [XXXVIII]
Meloidogyne incognita
  Root knot count, average of the replicate counts: 16.5
[1]; 50 μM
  number of egg masses (galls) on roots, Replicate 1: 40
  number of egg masses (galls) on roots, Replicate 2: 70
  number of egg masses (galls) on roots, Replicate 3: 1

Source: patent publication US20090209605A1, “NEMATICIDAL COMPOSITIONS” (Devgen N.V., priority 2004, published 2009)
